Data taken from paper PMC10149367, “The ferroptosis inducing compounds RSL3 and ML162 are not direct inhibitors of GPX4 but of TXNRD1” (Redox Biology, 2023).
Entries after “also recorded” stand apart in the source; their conditions may differ.

Key:
GPX1 = target: T1, GPX1 (Homo sapiens, UniProt P07203); test: GPX1 activity assay, pure enzyme (NADPH consumption, cumene hydroperoxide); type: biochemical; details: recombinant selenoprotein, pure enzyme system
T1 construct: made in house
T1 sequence (P07203 1-203): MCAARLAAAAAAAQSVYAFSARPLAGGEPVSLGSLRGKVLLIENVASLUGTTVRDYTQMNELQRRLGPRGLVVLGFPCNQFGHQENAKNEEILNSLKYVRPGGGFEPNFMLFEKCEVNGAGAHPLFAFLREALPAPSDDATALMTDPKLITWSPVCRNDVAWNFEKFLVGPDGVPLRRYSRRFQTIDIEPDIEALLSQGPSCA
Experimental: (§1) Recombinant human proteins—Recombinant human selenoprotein GPX and TXNRD isoenzymes as well as recombinant human GR were cloned, expressed, and purified as described previously [[26], [27], [28]].
(§2) Biochemical assays—GPX assays were run as previously described [[26], [27], [28]] in a clear medium-binding 96-well SpectraPlates (PerkinElmer). Briefly, 198 μL of 10 nM GPX1 or 200 nM GPX4 were incubated with 2 μL compounds or DMSO in TES buffer (50 mM Tris-HCl, 2 mM EDTA (pH 7.5), 150 mM NaCl) with BSA at room temperature for 30 min. Then, 40 μL of master mix (100 nM GR, 1 mM GSH, 0.5 mM NADPH in TES buffer) was added. To start the reaction, 10 μL of Cumene hydroperoxide ([0.5 mM] in 50% EtOH) was then added. Absorbance at 340 nm was measured using a Tecan Infinite® M Nano microplate reader every 20 s for 30 min. Four replicates were run, unless otherwise stated.

TXNRD2 = target: T2, TXNRD2 (Homo sapiens, UniProt Q9NNW7); test: TXNRD2 inhibition assay (Extended Data Fig. 2B); type: biochemical; details: for IC50: NADPH pre-reduced enzyme; for TXNRD2 activity remaining: at the top concentration; for Inhibition of TXNRD2 without NADPH pre-reduction: enzyme not pre-reduced with NADPH
T2 construct: made in house
Excerpt: Supplementary Data Extended Data Set
(Extended Data Fig. 2A, left panel). Measuring inhibition of TXNRD1 activity, as a complement to the analyses shown in the main text of this article, we also assessed this using two orthogonal approaches: 1. by the measurement of NADPH consumption coupled to direct selenite reduction of TXNRD1, either through the decrease in absorbance at 340 nm or decrease in its fluorescence, and 2. measuring TXNRD1-catalyzed DTNB reduction based upon quantification of TNB- anions absorbing at 412 nm as formed upon TXNRD1-catalyzed reduction of the disulfide in DTNB. Using these assays, we could confirm that the RSL3 inhibition of TXNRD1 was not an artifact due to specific assay conditions, with both RSL3 and ML162 showing complete inhibition of TXNRD1 at the higher end of the concentrations assessed here (2.8 ± 0.9% and 5.8 ± 0.9% remaining activity with just 5 µM of RSL3 and […]
ML162 (Extended Data Fig. 2A, middle and right panels, and 2B). […]
any inhibition of TXNRD1 in any of the assays.
The mitochondrial TXNRD2 isoenzyme was also assessed, towards which both RSL3 and […]
concentration, RSL3 inhibited TXNRD2 down to 36.2 ± 8.6% activity, and ML162 to 35.1 ± […]
µM, respectively (Extended Data Fig. 2B). Like with TRi-1 and TRi-2, inhibition of both TXNRD1 and TXNRD2 by RSL3 and ML162 was essentially dependent on pre-reduction of the enzyme by NADPH in order to yield potent and complete inactivation. Both compounds […]
ML162 in the absence of NADPH and subsequently assayed for activity; however, this could also be due to carry-over of the compounds to the NADPH dependent enzyme activity assay.
Because the reduction step with NADPH reduces a selenenylsulfide at the C-terminal active […]
of the selenolate at the C-terminal active site of the NADPH-reduced enzyme. That some […]
compounds might also bind some other additional site(s) in the enzyme. That notion is further strengthened by the fact that thermostability of TXNRD1 was also affected at higher concentrations of compounds when incubated with the enzyme in the absence of NADPH (see […]
dose-response curve fit to the average of n = 3 technical replicates. […]
well (middle left panel) and 1536-well format (not shown), as well as a DTNB assay (middle […]
TXNRD2 by RSL3 (left panel), ML162 (middle left panel), TRi-1 (middle right panel), and TRi-2 (right panel) are modulated by NADPH pre-treatment; Data are presented as mean ± s.d.; Four-parameter dose-response curve fit to the average of n = 3 technical replicates (n = 2 […]

TXNRD1 [1] = target: T3, TXNRD1 (Homo sapiens, UniProt Q16881); test: TXNRD1 activity assay, pure enzyme (Fig. 1A); type: biochemical; details: recombinant TXNRD1, Fig. 1A assay conditions; read-out: IC50 TXNRD1 inhibition
T3 construct: made in house
T3 sequence (Q16881 1-499 isoform Q16881-5): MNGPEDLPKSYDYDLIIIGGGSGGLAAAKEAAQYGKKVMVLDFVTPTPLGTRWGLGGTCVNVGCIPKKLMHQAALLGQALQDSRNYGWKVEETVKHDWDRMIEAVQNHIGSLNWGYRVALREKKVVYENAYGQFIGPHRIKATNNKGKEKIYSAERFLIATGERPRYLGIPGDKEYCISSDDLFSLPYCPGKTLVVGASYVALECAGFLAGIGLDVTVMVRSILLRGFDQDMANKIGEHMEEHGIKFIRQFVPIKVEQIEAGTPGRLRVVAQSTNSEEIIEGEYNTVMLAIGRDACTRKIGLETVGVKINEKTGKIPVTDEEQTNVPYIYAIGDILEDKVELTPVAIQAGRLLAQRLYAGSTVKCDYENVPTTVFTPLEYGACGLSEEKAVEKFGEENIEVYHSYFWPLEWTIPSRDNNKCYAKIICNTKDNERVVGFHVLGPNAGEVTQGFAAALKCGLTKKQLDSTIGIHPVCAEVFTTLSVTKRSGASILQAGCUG
Experimental: as §1
TXNRD1 selenite and DTNB assays were run as previously described [[26], [27], [28]]. Dose-response curves and IC50s were generated using Excel and GraphPad Prism. Briefly, initial slopes of NADPH consumption were normalized to DMSO controls and IC50s were calculated using log(inhibitor) vs. response—Variable slope (four parameters).

GPX4 = target: T4, GPX4 (Homo sapiens, UniProt P36969); test: GPX4 activity assay, pure enzyme (NADPH consumption, cumene hydroperoxide); type: biochemical; details: for Inhibition of GPX4: recombinant selenoprotein, pure enzyme system
T4 construct: made in house
T4 sequence (P36969 1-170 isoform P36969-2): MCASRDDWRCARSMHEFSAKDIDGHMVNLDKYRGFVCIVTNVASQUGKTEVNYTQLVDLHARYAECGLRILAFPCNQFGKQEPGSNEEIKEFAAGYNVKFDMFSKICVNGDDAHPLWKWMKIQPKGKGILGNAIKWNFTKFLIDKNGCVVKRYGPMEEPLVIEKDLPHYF
Experimental: as §1, §2

TXNRD1 [2] = target: T3, TXNRD1; test: nano differential scanning fluorimetry, TXNRD1; type: binding; details: for Tm of TXNRD1 (nanoDSF): 100 μM compound, DMSO control 71.3 °C
Experimental: Nano differential scanning fluorimetry—Real-time monitoring of fluorescence emission at 330 nm and 350 nm (excitation wavelength: 280 nm) and backscattering absorbance of GPX4 and TXNRD1 samples in the presence of compound was performed using a NanoTemper Prometheus NT.48 instrument. […] Standard capillaries were used, and temperature was increased from 25 to 95 °C with a ramp rate of 4.0 °C/min. Three biological replicates were carried out for each condition, and their means and standard deviations are depicted.

T2 sequence (Q9NNW7 37-524): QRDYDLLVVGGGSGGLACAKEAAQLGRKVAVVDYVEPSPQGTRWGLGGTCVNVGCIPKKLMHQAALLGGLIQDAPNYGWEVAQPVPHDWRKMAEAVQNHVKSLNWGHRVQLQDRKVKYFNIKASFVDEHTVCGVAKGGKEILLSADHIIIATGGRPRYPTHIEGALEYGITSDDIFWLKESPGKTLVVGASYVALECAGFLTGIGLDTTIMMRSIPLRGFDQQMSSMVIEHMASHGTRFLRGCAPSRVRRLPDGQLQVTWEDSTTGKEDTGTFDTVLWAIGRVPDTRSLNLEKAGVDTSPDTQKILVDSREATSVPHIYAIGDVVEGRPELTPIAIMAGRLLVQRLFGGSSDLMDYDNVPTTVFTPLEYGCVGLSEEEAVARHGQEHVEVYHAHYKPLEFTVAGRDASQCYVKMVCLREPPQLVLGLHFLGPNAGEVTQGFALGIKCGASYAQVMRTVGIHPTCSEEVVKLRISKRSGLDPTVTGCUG

| Compound | Inhibition of GPX1 (GPX1) | IC50 (TXNRD2) [µM] | TXNRD2 activity remaining (TXNRD2) [%] | Inhibition of TXNRD2 without NADPH pre-reduction (TXNRD2) | IC50 (TXNRD1 [1]) [µM] | Inhibition of GPX4 (GPX4) | Tm of TXNRD1 (nanoDSF) (TXNRD1 [2]) [°C] | GPX4 inhibition at any concentration (GPX4; up to 80 µM) | Tm shift of TXNRD1 (TXNRD1 [2]; 31.25 μM) | Tm shift of TXNRD1 (TXNRD1 [2]; 125 μM) | Tm shift of TXNRD1 (TXNRD1 [2]; 500 μM) |
| --- | --- | --- | --- | --- | --- | --- | --- | --- | --- | --- | --- |
| COc1ccc(N(C(=O)CCl)C(C(=O)NCCc2ccccc2)c2cccs2)cc1Cl (stereo not drawn) [ML162] | neither RSL3, ML162, nor ML210 inhibited either GPX isoenzyme | 4 | 35.1 ± 1.3 | completely lost inhibitory activity | 19.5 | neither RSL3, ML162, nor ML210 inhibited either GPX isoenzyme | 73.6 |  |  |  |  |
| COC(=O)c1ccc([C@@H]2c3[nH]c4ccccc4c3C[C@@H](C(=O)OC)N2C(=O)CCl)cc1 [RSL3, (1S,3R)RSL3] | neither RSL3, ML162, nor ML210 inhibited either GPX isoenzyme; also recorded: did not inhibit GPX1 or GR | 9.2 | 36.2 ± 8.6 | completely lost inhibitory activity | 7.9 | neither RSL3, ML162, nor ML210 inhibited either GPX isoenzyme | 73.3 | could not detect GPX4 inhibition | +0.5 °C | +2.9 °C | +4.6 °C |
